Test results reported in US20130109734A1 (Metabolex, Inc., priority 2010, published 2013).

These compounds were tested against T1, human GPR120 (Homo sapiens, UniProt Q5NUL3) (assay: Intracellular Ca2+ assay in human GPR120 stable cell line (HEK293 co-expressing Gqi5), Flexstation). Conditions: % activity at 5 μM compared to the maximal activity of GW9508 at 6.7 μM (=100%); human GPR120 cells, Ca2+ fluorescence.
T1 construct: host or cells: HEK293 cells co-expressing Gqi5
T1 sequence (Q5NUL3 1-361): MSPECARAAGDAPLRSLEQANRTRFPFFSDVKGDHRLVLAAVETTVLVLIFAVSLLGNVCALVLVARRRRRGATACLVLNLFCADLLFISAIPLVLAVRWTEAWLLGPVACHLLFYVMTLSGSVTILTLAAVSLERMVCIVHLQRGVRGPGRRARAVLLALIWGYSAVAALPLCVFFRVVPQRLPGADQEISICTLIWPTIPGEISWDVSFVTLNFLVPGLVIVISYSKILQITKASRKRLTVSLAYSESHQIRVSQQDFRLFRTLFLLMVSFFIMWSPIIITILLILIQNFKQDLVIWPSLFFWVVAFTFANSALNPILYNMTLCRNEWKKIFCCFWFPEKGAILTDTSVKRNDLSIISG
Assay type: cell-based
In short: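 HEK293 cells stably co-expressing Gqi5 and Flag-tagged human GPR120, loaded with Calcium 4 dye in HBSS/HEPES pH 7.4 at 37 °C; compounds at eight concentrations, 0.00001–20 μM, fluorescence (485/525 nm) read 90 s. EC50 from Max−Min change; percent activity relative to GW9508 maximum at 6.7 μM.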

| Structure (SMILES) | % Activity (GW9508 Reference Compound) |
| --- | --- |
| [2H]C([2H])(Oc1ccc(CC(C)C(=O)O)cc1C(F)(F)F)c1cc(F)cc2c1OC(C)(C)C2 (centres unmarked) [Example 231, 3-(4-(dideuterio(5-fluoro-2,2-dimethyl-2,3-dihydrobenzofuran-7-yl)methoxy)-3-(trifluoromethyl)phenyl)-2-methylpropanoic acid] | 101.01% |
| [2H]C([2H])(C(=O)O)C([2H])([2H])c1ccc(OCc2cc(Cl)cc3c2OC(C)(C)C3)c(F)c1 [Example 241, 3-(4-((5-chloro-2,2-dimethyl-2,3-dihydrobenzofuran-7-yl)methoxy)-3-fluorophenyl)-2,2,3,3-tetradeuteriopropanoic acid] | 159.62% |
| [2H]C([2H])(C(=O)O)C([2H])([2H])c1ccc(OCc2cc(F)cc3c2OC(C)(C)C3)c(F)c1CC [Example 243, 3-(2-ethyl-3-fluoro-4-((5-fluoro-2,2-dimethyl-2,3-dihydrobenzofuran-7-yl)methoxy)phenyl)-2,2,3,3-tetradeuteriopropanoic acid] | 155.23% |
| CC1(C)Cc2cc(Cl)cc(COc3ccccc3CCC(=O)O)c2O1 [Example 250, 3-(2-((5-chloro-2,2-dimethyl-2,3-dihydrobenzofuran-7-yl)methoxy)phenyl)propanoic acid] | 10.23% |
| CC(Cc1cccc(OCc2cc(Cl)cc3c2OC(C)(C)C3)c1)C(=O)O (centres unmarked) [Example 251, 3-(3-((5-chloro-2,2-dimethyl-2,3-dihydrobenzofuran-7-yl)methoxy)phenyl)-2-methylpropanoic acid] | 61.14% |
| CC(C)Oc1ncccc1COc1ccc2c(c1)CCC2CC(=O)O (centres unmarked) [Example 259, 2-(5-((2-isopropoxypyridin-3-yl)methoxy)-2,3-dihydro-1H-inden-1-yl)acetic acid] | 118.5% |
| Cc1nc2cccc(COc3c(F)cc(CC(C)C(=O)O)cc3F)c2o1 (centres unmarked) [Example 261, 3-(3,5-difluoro-4-((2-methylbenzo[d]oxazol-7-yl)methoxy)phenyl)-2-methylpropanoic acid] | 108.78% |
| CC1(C)Cc2cc(F)cc(COc3ccc4c(CC(=O)O)coc4c3)c2O1 [Example 262, 2-(6-((5-fluoro-2,2-dimethyl-2,3-dihydrobenzofuran-7-yl)methoxy)benzofuran-3-yl)acetic acid] | 137.39% |
| Cc1c(CCC(=O)O)ccc(OCc2cc(Cl)cc3c2CC(C)(C)O3)c1C [Example 267, 3-(4-((6-chloro-2,2-dimethyl-2,3-dihydrobenzofuran-4-yl)methoxy)-2,3-dimethylphenyl)propanoic acid] | 140.82% |

The next lines start with the values.

| % Activity (GW9508 Reference Compound) | Structure (SMILES) |
| --- | --- |
| 106.7955% | CC(Cc1ccc(OCc2cc(Cl)cc3c2OC(C)(C)C3)c(F)c1)C(=O)O (centres unmarked) [Example 10, 3-(4-((5-chloro-2,2-dimethyl-2,3-dihydrobenzofuran-7-yl)methoxy)-3-fluorophenyl)-2-methylpropanoic acid] |
| 119.0442% | CC(Cc1ccc(OCc2cc(Cl)cc3c2OC(C)(C)C3)cc1)C(=O)O (centres unmarked) [Example 13] |
| 146.14% | Cc1cc(CCC(=O)O)c(C)c(C)c1OCc1cc(F)cc2c1OC(C)(C)C2 [Example 254, 3-(4-((5-fluoro-2,2-dimethyl-2,3-dihydrobenzofuran-7-yl)methoxy)-2,3,5-trimethylphenyl) propanoic acid] |
| 124.62% | CC(C)Oc1ccc(Cl)cc1COc1cc2c(cc1F)C(CC(=O)O)CC2 (centres unmarked) [Example 257, 2-(5-((5-chloro-2-isopropoxybenzyl)oxy)-6-fluoro-2,3-dihydro-1H-inden-1-yl)acetic acid] |
| 139.95% | CC(C)Oc1ccc(Cl)cc1COc1ccc2c(c1)CCC2CC(=O)O (centres unmarked) [Example 258, 2-(5-((5-chloro-2-isopropoxybenzyl)oxy)-2,3-dihydro-1H-inden-1-yl)acetic acid] |
| 16.67% | CC(Cc1cc(F)c(OCc2cccc3cn[nH]c23)c(F)c1)C(=O)O (centres unmarked) [Example 260, 3-(4-((1H-indazol-7-yl)methoxy)-3,5-difluorophenyl)-2-methylpropanoic acid] |
| 5.98% | CC1(C)Cc2cc(F)cc(COc3ccc4c(CC(=O)O)cc(=O)oc4c3)c2O1 [Example 263, 2-(7-((5-fluoro-2,2-dimethyl-2,3-dihydrobenzofuran-7-yl)methoxy)-2-oxo-2H-chromen-4-yl)acetic acid] |
| 110.24% | CC(Cc1ccc(OCc2cc(F)cc3c2OC(C)(C)C3)cc1)C(=O)NO (centres unmarked) [Example 264, 3-(4-((5-fluoro-2,2-dimethyl-2,3-dihydrobenzofuran-7-yl)methoxy)phenyl)-N-hydroxy-2-methylpropanamide] |
| 42.73% | CC(C)C(CC(=O)O)c1ccc(OCc2cc(Cl)cc3c2OC(C)(C)C3)cc1 (centres unmarked) [Example 266, 3-(4-((5-chloro-2,2-dimethyl-2,3-dihydrobenzofuran-7-yl)methoxy)phenyl)-4-methylpentanoic acid] |

The compounds below were run on C57BL/6J mice (assay: Intra peritoneal glucose tolerance test (IPGTT)). Conditions: Mus musculus, 2 h; C57BL/6J mice fasted overnight, compound 30 mg/kg oral gavage at -30 min, 2 g/kg glucose intra peritoneally, incremental AUC 0-120 min vs vehicle; read-out: % reduction IPGTT at 30 mg/kg.
Assay type: in vivo
Procedure: 8-10 week old male C57BL/6J mice (Harlan) were maintained on regular chow diet from Harlan (2018 Teklad Global). On the day before the experiment mice were fasted overnight, then randomized into groups (n=10-15) to receive the tested GPR120 agonist at doses ranging from 100 mg/kg or the vehicle (1% CMC, 2% TWEEN 80). Compounds were delivered orally via gavage at 10 mL/kg. Blood glucose levels were measured by glucometer (Ascensia Elite XL, Bayer) at time −30 minutes before administration of compound. Blood glucose was measured again after 30 minutes (at time 0), and then the mice were dosed intra peritoneally with 2 g/kg glucose at 10 mL/kg. Blood glucose measurements were taken 20, 40, 60, 90 and 120 minutes after glucose administration, by glucometer (Ascensia Elite XL, Bayer).
Glucose levels were plotted against time, and the incremental area under the curve (AUC) of the glucose excursion was determined from time 0 using Graphpad Prism 5.01. Outliers were excluded using Tukey's box plot outlier test, and statistical significance of differences in AUC of compound treatment compared to vehicle was determined by non-parametric Kruskal-Wallis test with Dunn's post test.
The compounds were tested at 30 mg/kg and the levels of blood glucose were determined in the presence and absence of the tested compounds. The percentage of glucose reduction is reported. […]

| Structure (SMILES) | inhibition in vivo at 30 mg/kg |
| --- | --- |
| CC(Cc1ccc(OCc2cc(Cl)cc3c2OC(C)(C)C3)c(F)c1)C(=O)O (centres unmarked) [Example 10, 3-(4-((5-chloro-2,2-dimethyl-2,3-dihydrobenzofuran-7-yl)methoxy)-3-fluorophenyl)-2-methylpropanoic acid] | 30.7% |
| CC(Cc1ccc(OCc2cc(Cl)cc3c2OC(C)(C)C3)cc1)C(=O)O (centres unmarked) [Example 13] | 31% |
